Measurements published in ChEMBL document CHEMBL3739423, “Synthesis, biological evaluation and mechanism study of a class of benzylideneindanone derivatives as novel anticancer agents” (Medchemcomm, 2015).

System: A549
Assay: Antiproliferative activity against human A549 cells after 48 hrs by MTT assay
Assay type: functional
Conditions: A549, 48 h

SMILES | GI50
COc1cc2c(cc1OC)C(=O)/C(=C/c1ccc(OC)c(OC)c1OC)C2 | > 10 µM
COc1ccc(/C=C2\Cc3cc(OC)c(OC)c(OC)c3C2=O)cc1O | > 10 µM
COc1ccc(/C=C2\Cc3c(cc(OC)c(OC)c3OC)C2=O)cc1N | 0.212 µM
COc1cc(/C=C2\Cc3c(cc(OC)c(OC)c3OC)C2=O)cc(OC)c1OC | 2.79 µM
COc1ccc(/C=C2\Cc3cc(OC)c(OC)c(OC)c3C2=O)cc1[N+](=O)[O-] | > 10 µM

More lines, now with the values ahead:

GI50 | SMILES
9.74 µM | COc1ccc(/C=C2\Cc3c(cc(OC)c(OC)c3OC)C2=O)cc1OC
18.9 µM | COc1ccc(/C=C2\CCc3c(cc(OC)c(OC)c3OC)C2=O)cc1
15.4 µM | COc1ccc(/C=C2\CCc3c(cc(OC)c(OC)c3OC)C2=O)cc1F
0.41 µM | COc1ccc(/C=C2\Cc3c(cc(OC)c(OC)c3OC)C2=O)cc1Br
> 10 µM | COc1cc(/C=C2\Cc3cc(OC)c(OC)c(OC)c3C2=O)cc(OC)c1OC
0.77 µM | COc1ccc(/C=C2\Cc3c(cc(OC)c(OC)c3OC)C2=O)cc1[N+](=O)[O-]

System: not listed separately
Assay: Antiproliferative activity against human PC3 cells after 48 hrs by MTT assay
Assay type: functional
Conditions: PC-3, 48 h

SMILES | GI50
COc1cc2c(cc1OC)C(=O)/C(=C/c1ccc(OC)c(OC)c1OC)C2 | > 10 µM
COc1ccc(/C=C2\Cc3c(cc(OC)c(OC)c3OC)C2=O)cc1OC | 7.47 µM
COc1ccc(/C=C2\CCc3c(cc(OC)c(OC)c3OC)C2=O)cc1 | 19.6 µM
COc1ccc(/C=C2\Cc3cc(OC)c(OC)c(OC)c3C2=O)cc1O | > 10 µM
COc1ccc(/C=C2\CCc3c(cc(OC)c(OC)c3OC)C2=O)cc1F | 27.6 µM
COc1ccc(/C=C2\Cc3c(cc(OC)c(OC)c3OC)C2=O)cc1N | 0.456 µM
COc1ccc(/C=C2\Cc3c(cc(OC)c(OC)c3OC)C2=O)cc1Br | 0.389 µM
COc1cc(/C=C2\Cc3c(cc(OC)c(OC)c3OC)C2=O)cc(OC)c1OC | 4.99 µM
COc1cc(/C=C2\Cc3cc(OC)c(OC)c(OC)c3C2=O)cc(OC)c1OC | > 10 µM
COc1ccc(/C=C2\Cc3c(cc(OC)c(OC)c3OC)C2=O)cc1[N+](=O)[O-] | 1.56 µM
COc1ccc(/C=C2\Cc3cc(OC)c(OC)c(OC)c3C2=O)cc1[N+](=O)[O-] | > 10 µM

System: MDA-MB-231
Assay: Antiproliferative activity against human MDA-MB-231 cells after 48 hrs by MTT assay
Assay type: functional
Conditions: MDA-MB-231, 48 h

SMILES | GI50
COc1cc2c(cc1OC)C(=O)/C(=C/c1ccc(OC)c(OC)c1OC)C2 | > 10 µM
COc1ccc(/C=C2\Cc3cc(OC)c(OC)c(OC)c3C2=O)cc1O | > 10 µM
COc1ccc(/C=C2\Cc3c(cc(OC)c(OC)c3OC)C2=O)cc1N | 0.485 µM
COc1cc(/C=C2\Cc3c(cc(OC)c(OC)c3OC)C2=O)cc(OC)c1OC | 5.84 µM
COc1ccc(/C=C2\Cc3cc(OC)c(OC)c(OC)c3C2=O)cc1[N+](=O)[O-] | > 10 µM

Results, then the molecule that gave them:

GI50 | SMILES
9.85 µM | COc1ccc(/C=C2\Cc3c(cc(OC)c(OC)c3OC)C2=O)cc1OC
38.7 µM | COc1ccc(/C=C2\CCc3c(cc(OC)c(OC)c3OC)C2=O)cc1
29.4 µM | COc1ccc(/C=C2\CCc3c(cc(OC)c(OC)c3OC)C2=O)cc1F
0.678 µM | COc1ccc(/C=C2\Cc3c(cc(OC)c(OC)c3OC)C2=O)cc1Br
> 10 µM | COc1cc(/C=C2\Cc3cc(OC)c(OC)c(OC)c3C2=O)cc(OC)c1OC
3.49 µM | COc1ccc(/C=C2\Cc3c(cc(OC)c(OC)c3OC)C2=O)cc1[N+](=O)[O-]

Target: Tubulin
Assay: Inhibition of tubulin polymerization (unknown origin) by fluorescence analysis
Assay type: protein-complex assay, Homo sapiens
Conditions: not given

IC50 | SMILES
8.64 µM | COc1ccc(/C=C2\Cc3c(cc(OC)c(OC)c3OC)C2=O)cc1N
9.05 µM | COc1ccc(/C=C2\Cc3c(cc(OC)c(OC)c3OC)C2=O)cc1Br

System: not listed separately
Assay: Antiproliferative activity against human Bel7402 cells after 48 hrs by MTT assay
Assay type: functional
Conditions: Bel-7402, 48 h

SMILES | GI50
COc1cc2c(cc1OC)C(=O)/C(=C/c1ccc(OC)c(OC)c1OC)C2 | > 10 µM
COc1ccc(/C=C2\Cc3c(cc(OC)c(OC)c3OC)C2=O)cc1OC | 10.5 µM
COc1ccc(/C=C2\CCc3c(cc(OC)c(OC)c3OC)C2=O)cc1 | 25.4 µM
COc1ccc(/C=C2\Cc3cc(OC)c(OC)c(OC)c3C2=O)cc1O | > 10 µM
COc1ccc(/C=C2\CCc3c(cc(OC)c(OC)c3OC)C2=O)cc1F | 19.3 µM
COc1ccc(/C=C2\Cc3c(cc(OC)c(OC)c3OC)C2=O)cc1N | 0.45 µM
COc1ccc(/C=C2\Cc3c(cc(OC)c(OC)c3OC)C2=O)cc1Br | 0.563 µM
COc1cc(/C=C2\Cc3c(cc(OC)c(OC)c3OC)C2=O)cc(OC)c1OC | 1.58 µM
COc1cc(/C=C2\Cc3cc(OC)c(OC)c(OC)c3C2=O)cc(OC)c1OC | > 10 µM
COc1ccc(/C=C2\Cc3c(cc(OC)c(OC)c3OC)C2=O)cc1[N+](=O)[O-] | 0.95 µM
COc1ccc(/C=C2\Cc3cc(OC)c(OC)c(OC)c3C2=O)cc1[N+](=O)[O-] | > 10 µM

System: HeLa
Assay: Antiproliferative activity against human HeLa cells after 48 hrs by MTT assay
Assay type: functional
Conditions: not given

SMILES | GI50
COc1cc2c(cc1OC)C(=O)/C(=C/c1ccc(OC)c(OC)c1OC)C2 | > 10 µM
COc1ccc(/C=C2\Cc3cc(OC)c(OC)c(OC)c3C2=O)cc1O | > 10 µM
COc1ccc(/C=C2\Cc3c(cc(OC)c(OC)c3OC)C2=O)cc1N | 0.169 µM
COc1cc(/C=C2\Cc3c(cc(OC)c(OC)c3OC)C2=O)cc(OC)c1OC | 2.37 µM
COc1ccc(/C=C2\Cc3cc(OC)c(OC)c(OC)c3C2=O)cc1[N+](=O)[O-] | > 10 µM

The remaining lines, values ahead:

GI50 | SMILES
8.56 µM | COc1ccc(/C=C2\Cc3c(cc(OC)c(OC)c3OC)C2=O)cc1OC
12.4 µM | COc1ccc(/C=C2\CCc3c(cc(OC)c(OC)c3OC)C2=O)cc1
10.2 µM | COc1ccc(/C=C2\CCc3c(cc(OC)c(OC)c3OC)C2=O)cc1F
0.356 µM | COc1ccc(/C=C2\Cc3c(cc(OC)c(OC)c3OC)C2=O)cc1Br
> 10 µM | COc1cc(/C=C2\Cc3cc(OC)c(OC)c(OC)c3C2=O)cc(OC)c1OC
0.79 µM | COc1ccc(/C=C2\Cc3c(cc(OC)c(OC)c3OC)C2=O)cc1[N+](=O)[O-]
